System: 616215-338-R-J1-PDC spheroids with HUVEC/MSC, viability
Test: Anticancer human tumor 616215-338-R-J1-PDC patient-derived colon adenocarcinoma cell line growth inhibition [PI3K]
Conditions: for IC50: curve of first compound; for viability, T/C: stronger effect = lower value
Outline: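 Viability of mixed-cell spheroids was determined after exposure to pairwise combinations, one partner being inavolisib, alpelisib, duvelisib or copanlisib. Highest tested concentration matched clinical Cmax where known and 10 microM where not, descending in half-log steps.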

[1] = second compound 0.0316 µM, first compound 0.0316 µM
[2] = second compound 0.0316 µM, first compound 0.1 µM
[3] = second compound 0.0316 µM, first compound 0.316 µM
[4] = second compound 0.0316 µM, first compound 1 µM
[5] = second compound 0.0316 µM, first compound 3.16 µM
[6] = second compound 0.0316 µM, first compound 10 µM
[7] = second compound 0.1 µM, first compound 0.0316 µM
[8] = second compound 0.1 µM, first compound 0.1 µM
[9] = second compound 0.1 µM, first compound 0.316 µM
[10] = second compound 0.1 µM, first compound 1 µM
[11] = second compound 0.1 µM, first compound 3.16 µM
[12] = second compound 0.1 µM, first compound 10 µM
[13] = second compound 0.316 µM, first compound 0.0316 µM
[14] = second compound 0.316 µM, first compound 0.1 µM
[15] = second compound 0.316 µM, first compound 0.316 µM
[16] = second compound 0.316 µM, first compound 1 µM
[17] = second compound 0.316 µM, first compound 3.16 µM
[18] = second compound 0.316 µM, first compound 10 µM
[19] = second compound 1 µM, first compound 0.0316 µM
[20] = second compound 1 µM, first compound 0.1 µM
[21] = second compound 1 µM, first compound 0.316 µM
[22] = second compound 1 µM, first compound 1 µM
[23] = second compound 1 µM, first compound 3.16 µM
[24] = second compound 1 µM, first compound 10 µM
[25] = second compound 3.16 µM, first compound 0.0316 µM
[26] = second compound 3.16 µM, first compound 0.1 µM
[27] = second compound 3.16 µM, first compound 0.316 µM
[28] = second compound 3.16 µM, first compound 1 µM
[29] = second compound 3.16 µM, first compound 3.16 µM
[30] = second compound 3.16 µM, first compound 10 µM
[31] = second compound 10 µM, first compound 0.0316 µM
[32] = second compound 10 µM, first compound 0.1 µM
[33] = second compound 10 µM, first compound 0.316 µM
[34] = second compound 10 µM, first compound 1 µM
[35] = second compound 10 µM, first compound 3.16 µM
[36] = second compound 10 µM, first compound 10 µM
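Note: spheroids exposed to agents for seven days before the viability read.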

Question: Which results are given for `C#Cc1c(F)ccc2cc(O)cc(-c3ncc4c(N5CC6CCC(C5)N6)nc(OCC56CCCN5CC(F)C6)nc4c3F)c12` (stereo not drawn) + CC(Nc1ncnc2nc[nH]c12)c1cc2cccc(Cl)c2c(=O)n1-c1ccccc1?
Answer: IC50 (second compound 0.0316 µM): > 10 µM; IC50 (second compound 0.1 µM): > 10 µM; IC50 (second compound 0.316 µM): > 10 µM; IC50 (second compound 1 µM): > 10 µM; IC50 (second compound 3.16 µM): > 10 µM; IC50 (second compound 10 µM): > 10 µM; viability, T/C [1]: 99.5%; viability, T/C [2]: 93.7%; viability, T/C [3]: 102%; viability, T/C [4]: 109%; viability, T/C [5]: 109%; viability, T/C [6]: 73.3%; viability, T/C [7]: 102%; viability, T/C [8]: 110%; viability, T/C [9]: 98.5%; viability, T/C [10]: 99.8%; viability, T/C [11]: 102%; viability, T/C [12]: 81.3%; viability, T/C [13]: 111%; viability, T/C [14]: 97.7%; viability, T/C [15]: 98.2%; viability, T/C [16]: 99.8%; viability, T/C [17]: 104%; viability, T/C [18]: 68.2%; viability, T/C [19]: 100%; viability, T/C [20]: 110%; viability, T/C [21]: 108%; viability, T/C [22]: 104%; viability, T/C [23]: 122%; viability, T/C [24]: 74.7%; viability, T/C [25]: 111%; viability, T/C [26]: 97.7%; viability, T/C [27]: 103%; viability, T/C [28]: 107%; viability, T/C [29]: 98.4%; viability, T/C [30]: 58.4%; viability, T/C [31]: 104%; viability, T/C [32]: 108%; viability, T/C [33]: 109%; viability, T/C [34]: 105%; viability, T/C [35]: 95%; viability, T/C [36]: 62.5%

Question: With `C=CC(=O)N1CCN(c2nc(=O)n(-c3c(C)ccnc3C(C)C)c3nc(-c4c(O)cccc4F)c(F)cc23)C(C)C1` (stereo not drawn) + CC(Nc1ncnc2nc[nH]c12)c1cc2cccc(Cl)c2c(=O)n1-c1ccccc1 as the compound, how does the IC50 (second compound 0.0316 µM) read?
Answer: > 10 µM

Question: And the IC50 (second compound 0.1 µM)?
Answer: > 10 µM

Question: And the IC50 (second compound 0.316 µM)?
Answer: > 10 µM

Question: What about the IC50 (second compound 1 µM) of the same compound?
Answer: > 10 µM

Question: And the IC50 (second compound 3.16 µM)?
Answer: > 10 µM

Question: And the IC50 (second compound 10 µM)?
Answer: > 10 µM

Question: What about the viability, T/C [1] of the same compound?
Answer: 89%

Question: And the viability, T/C [2]?
Answer: 92.5%

Question: What about the viability, T/C [3] of the same compound?
Answer: 109%

Question: And the viability, T/C [4]?
Answer: 104%

Question: What about the viability, T/C [5] of the same compound?
Answer: 93.3%

Question: And the viability, T/C [6]?
Answer: 95.8%

Question: And the viability, T/C [7]?
Answer: 100%

Question: And the viability, T/C [8]?
Answer: 99.3%

Question: What about the viability, T/C [9] of the same compound?
Answer: 98%

Question: And the viability, T/C [10]?
Answer: 93.4%

Question: And the viability, T/C [11]?
Answer: 96.8%

Question: And the viability, T/C [12]?
Answer: 89.1%

Question: And the viability, T/C [13]?
Answer: 99.7%

Question: What about the viability, T/C [14] of the same compound?
Answer: 107%

Question: And the viability, T/C [15]?
Answer: 92.8%

Question: What about the viability, T/C [16] of the same compound?
Answer: 96.5%

Question: And the viability, T/C [17]?
Answer: 91.4%

Question: What about the viability, T/C [18] of the same compound?
Answer: 74.7%

Question: What about the viability, T/C [19] of the same compound?
Answer: 101%

Question: What about the viability, T/C [20] of the same compound?
Answer: 99.5%

Question: And the viability, T/C [21]?
Answer: 106%

Question: And the viability, T/C [22]?
Answer: 96.9%

Question: And the viability, T/C [23]?
Answer: 94%

Question: And the viability, T/C [24]?
Answer: 88.5%

Question: What about the viability, T/C [25] of the same compound?
Answer: 101%

Question: What about the viability, T/C [26] of the same compound?
Answer: 104%

Question: What about the viability, T/C [27] of the same compound?
Answer: 98%

Question: What about the viability, T/C [28] of the same compound?
Answer: 105%

Question: And the viability, T/C [29]?
Answer: 85.4%

Question: And the viability, T/C [30]?
Answer: 78.8%

Question: What about the viability, T/C [31] of the same compound?
Answer: 106%

Question: And the viability, T/C [32]?
Answer: 107%

Question: What about the viability, T/C [33] of the same compound?
Answer: 108%

Question: And the viability, T/C [34]?
Answer: 95.5%

Question: And the viability, T/C [35]?
Answer: 99%

Question: And the viability, T/C [36]?
Answer: 82.6%

Question: What does the source list for `CC(Cn1ccc(-c2ccc(C#N)c(Cl)c2)n1)NC(=O)c1cc(C(C)O)[nH]n1` (stereo not drawn) + CC(Nc1ncnc2nc[nH]c12)c1cc2cccc(Cl)c2c(=O)n1-c1ccccc1?
Answer: IC50 (second compound 0.0316 µM): > 10 µM; IC50 (second compound 0.1 µM): > 10 µM; IC50 (second compound 0.316 µM): > 10 µM; IC50 (second compound 1 µM): > 10 µM; IC50 (second compound 3.16 µM): > 10 µM; IC50 (second compound 10 µM): > 10 µM; viability, T/C [1]: 92%; viability, T/C [2]: 99.5%; viability, T/C [3]: 103%; viability, T/C [4]: 96.1%; viability, T/C [5]: 116%; viability, T/C [6]: 99.5%; viability, T/C [7]: 93.7%; viability, T/C [8]: 94.6%; viability, T/C [9]: 102%; viability, T/C [10]: 92.9%; viability, T/C [11]: 95.5%; viability, T/C [12]: 104%; viability, T/C [13]: 93.1%; viability, T/C [14]: 102%; viability, T/C [15]: 89.1%; viability, T/C [16]: 101%; viability, T/C [17]: 102%; viability, T/C [18]: 93.4%; viability, T/C [19]: 96%; viability, T/C [20]: 88.3%; viability, T/C [21]: 110%; viability, T/C [22]: 93.7%; viability, T/C [23]: 110%; viability, T/C [24]: 95.9%; viability, T/C [25]: 109%; viability, T/C [26]: 97.1%; viability, T/C [27]: 107%; viability, T/C [28]: 104%; viability, T/C [29]: 94.8%; viability, T/C [30]: 92.8%; viability, T/C [31]: 99.4%; viability, T/C [32]: 106%; viability, T/C [33]: 101%; viability, T/C [34]: 97%; viability, T/C [35]: 118%; viability, T/C [36]: 95.5%

Question: `CC1(C)CCC(Nc2ncc(C(F)(F)F)c(-c3c[nH]c4c(P(C)(C)=O)c(C#N)ccc34)n2)CN1` (stereo not drawn) + CC(Nc1ncnc2nc[nH]c12)c1cc2cccc(Cl)c2c(=O)n1-c1ccccc1 was tested. Which IC50 (second compound 0.0316 µM) did it give?
Answer: 0.0316 µM

Question: And the IC50 (second compound 0.1 µM)?
Answer: 0.0316 µM

Question: What about the IC50 (second compound 0.316 µM) of the same compound?
Answer: 0.0316 µM

Question: What about the IC50 (second compound 1 µM) of the same compound?
Answer: < 0.0316 µM

Question: What about the IC50 (second compound 3.16 µM) of the same compound?
Answer: 1.09 µM

Question: What about the IC50 (second compound 10 µM) of the same compound?
Answer: 0.714 µM

Question: And the viability, T/C [1]?
Answer: 53.9%

Question: What about the viability, T/C [2] of the same compound?
Answer: 39%

Question: And the viability, T/C [3]?
Answer: 44.9%

Question: And the viability, T/C [4]?
Answer: 51.6%

Question: What about the viability, T/C [5] of the same compound?
Answer: 51.8%

Question: And the viability, T/C [6]?
Answer: 0.44%

Question: What about the viability, T/C [7] of the same compound?
Answer: 50.6%

Question: What about the viability, T/C [8] of the same compound?
Answer: 37%

Question: And the viability, T/C [9]?
Answer: 44.8%

Question: And the viability, T/C [10]?
Answer: 45.8%

Question: What about the viability, T/C [11] of the same compound?
Answer: 54%

Question: And the viability, T/C [12]?
Answer: 1.73%

Question: And the viability, T/C [13]?
Answer: 44%

Question: What about the viability, T/C [14] of the same compound?
Answer: 37.4%

Question: What about the viability, T/C [15] of the same compound?
Answer: 41.1%

Question: And the viability, T/C [16]?
Answer: 42.3%

Question: What about the viability, T/C [17] of the same compound?
Answer: 51.3%

Question: And the viability, T/C [18]?
Answer: 0.53%

Question: And the viability, T/C [19]?
Answer: 42.2%

Question: What about the viability, T/C [20] of the same compound?
Answer: 41.1%

Question: What about the viability, T/C [21] of the same compound?
Answer: 39.9%

Question: What about the viability, T/C [22] of the same compound?
Answer: 70.7%

Question: What about the viability, T/C [23] of the same compound?
Answer: 46.5%

Question: What about the viability, T/C [24] of the same compound?
Answer: 1.13%

Question: And the viability, T/C [25]?
Answer: 44.1%

Question: And the viability, T/C [26]?
Answer: 39.4%

Question: And the viability, T/C [27]?
Answer: 64.1%

Question: What about the viability, T/C [28] of the same compound?
Answer: 57.4%

Question: And the viability, T/C [29]?
Answer: 41.8%

Question: What about the viability, T/C [30] of the same compound?
Answer: 0.36%

Question: What about the viability, T/C [31] of the same compound?
Answer: 48%

Question: And the viability, T/C [32]?
Answer: 51.3%

Question: And the viability, T/C [33]?
Answer: 58.4%

Question: What about the viability, T/C [34] of the same compound?
Answer: 48.4%

Question: What about the viability, T/C [35] of the same compound?
Answer: 20.9%

Question: And the viability, T/C [36]?
Answer: 0.61%
